Experimental data: paper PMC8921064 (Archives of Toxicology, 2022)
Like-named read-outs stand apart in the source and are kept apart here.

Experiments:
[1] = test system: human liver microsomes (HLM); experiment: Human liver microsomal incubation, metabolite formation quantified by UPLC; settings: HLM
Procedure: (§1) The incubation mixtures were prepared and incubated in glass vials to avoid plastic binding of the substrates. The glass vials were capped to prevent substrate loss due to volatility. After preincubation of the incubation mixture at 37 °C for 1 min, the enzymatic reaction was initiated by adding microsomes to the incubation mixture which was subsequently incubated at 37 °C for 20 min. The reaction was terminated by adding 100 µl ice-cold acetonitrile followed by vortexing. After 5 min centrifugation at 5000 rpm (4000 × g), 4 °C, the supernatant was collected for ultraperformance liquid chromatography (UPLC) analysis. […] Therefore, a diisopropylether (DIPE) extraction of the metabolites was performed after the reaction was stopped by the addition of 20 µl 10% HClO4. To this end, the incubation mixture (total volume of 220 µl) was extracted three times with 1 ml DIPE. Each time, the upper organic layer was collected and the DIPE was subsequently evaporated from the combined organic fractions with a gentle stream of nitrogen. The residues were dissolved in 100 µl methanol and analyzed by UPLC.
(§2) The metabolites formed were analyzed and quantified using an Acquity UPLC system equipped with a photodiode array (PDA) detector (Waters, Milford, MA). The metabolites and their parent compound were separated on a reverse phase Acquity UPLC® BEH C18 column ([…], 1.7 µm, Waters, Milford, MA) and detected at wavelengths ranging from 190 to 400 nm. Eluent A was nano-pure water containing 0.1% trifluoroacetic acid (v/v), and eluent B was acetonitrile containing 0.1% trifluoroacetic acid (v/v). The gradient elution started from 90% A and 10% B applied from 0.0 min to 0.5 min, which was changed to 0% A and 100% B from 0.5 to 15.5 min and then kept at 0% A and 100% B from 15.5 min to 18.5 min, changed back to 90% A and 10% B from 18.5 to 18.6 min and then maintained at the starting conditions from 18.6 min until 22 min. The total run time was 22 min using a flow rate of 0.6 ml/min. The temperature of the column was set at 40 °C and that of the autosampler at 10 °C during the UPLC analysis. The injection volume was 3.5 µl. Metabolites were quantified using their peak area at the wavelength specified in Table 1, using calibration curves of available reference compounds. Metabolites were identified by comparing their retention time (RT) and UV spectrum to those of reference chemicals on UPLC. When reference chemicals were not available, metabolite identification by gas chromatography-triple quadrupole mass spectrometry (GC–MS/MS) was performed. The minor metabolites were identified by elution time and mass spectra both on UPLC and GC–MS/MS, and by comparison with available elution and spectral information from the literature.
(§3) The metabolite concentrations in the microsomal incubation mixtures as quantified by UPLC were used to calculate the rate of the enzymatic conversions in pmol/min/mg microsomal protein. The kinetic parameters KM and Vmax were obtained using a nonlinear regression curve fit applying the Michaelis Menten equation in GraphPad Prism 5 (San Diego, USA). To compare the catalytic efficiency of formation of the different metabolites the intrinsic clearance (Clint) was calculated as Vmax divided by KM.

S. typhimurium TA98 = settings: cited from earlier work
[2] = test system: Salmonella typhimurium TA98; experiment: Reverse mutation assay (Ames test), TA98; settings: for Increase in the number of revertants compared to the concurrent solvent control: TA98, presence of 5% S9-mix, 10–100 µg; for Mutagenicity (conclusion): TA98, positive if more than threefold over control
Procedure: Six concentrations of each compound were tested in triplicate in the absence and presence of 5% (v/v) S9-mix prepared from the livers of Aroclor 1254 treated Sprague–Dawley rats. The S9-mix contained 4 mM NADP, 5.8 mM glucose-6-phosphate, 0.1 M sodium phosphate pH 7.4, 8 mM MgCl2, 33 mM KCl and 5% S9 homogenate. Fresh bacterial cultures were prepared overnight to reach 10^9 cells/ml. The following solutions were pre-incubated in a rotating incubator at 70 rpm and 37 °C, and contained either 0.5 ml S9-mix (in case of S9 presence) or 0.5 ml 0.1 M potassium phosphate pH 7.4 (in case of S9 absence), 0.1 ml of a fresh bacterial culture (10^9 cells/ml) of TA98 or TA100, […] Top agar was melted and heated to 45 °C. After preincubation, the substrate solutions were added to 3 ml of the molten top agar and mixed by vortexing and the top agar mixture was poured onto a minimal glucose agar plate. After solidification of the top agar, the plates were incubated at 37 °C for 48 h. The number of revertant colonies per plate was automatically counted with the Instem Sorcerer Colony Counter (Staffordshire, UK). In the absence of S9-mix, 2-nitrofluorene (NF) and methylmethanesulfonate (MMS) were tested as positive controls for incubations with TA98 and TA100, respectively. In the presence of S9-mix, 2-aminoanthracene (2AA) was tested as a positive control in both TA98 and TA100. DMSO was tested as a solvent control in both tester strains.

[3] = test system: Salmonella typhimurium TA100; experiment: Reverse mutation assay (Ames test), TA100; settings: for Increase in the number of revertants compared to the concurrent solvent control: TA100, presence of 5% S9-mix, 10–100 µg; for Mutagenicity (conclusion): TA100, positive if more than twofold over control
Procedure: Six concentrations of each compound were tested in triplicate in the absence and presence of 5% (v/v) S9-mix prepared from the livers of Aroclor 1254 treated Sprague–Dawley rats. The S9-mix contained 4 mM NADP, 5.8 mM glucose-6-phosphate, 0.1 M sodium phosphate pH 7.4, 8 mM MgCl2, 33 mM KCl and 5% S9 homogenate. Fresh bacterial cultures were prepared overnight to reach 10^9 cells/ml. The following solutions were pre-incubated in a rotating incubator at 70 rpm and 37 °C, and contained either 0.5 ml S9-mix (in case of S9 presence) or 0.5 ml 0.1 M potassium phosphate pH 7.4 (in case of S9 absence), 0.1 ml of a fresh bacterial culture (10^9 cells/ml) of TA98 or TA100, and 10–100 µg test compound. Top agar was melted and heated to 45 °C. After preincubation, the substrate solutions were added to 3 ml of the molten top agar and mixed by vortexing and the top agar mixture was poured onto a minimal glucose agar plate. After solidification of the top agar, the plates were incubated at 37 °C for 48 h. The number of revertant colonies per plate was automatically counted with the Instem Sorcerer Colony Counter (Staffordshire, UK). In the absence of S9-mix, 2-nitrofluorene (NF) and methylmethanesulfonate (MMS) were tested as positive controls for incubations with TA98 and TA100, respectively. In the presence of S9-mix, 2-aminoanthracene (2AA) was tested as a positive control in both TA98 and TA100. DMSO was tested as a solvent control in both tester strains.

[4] = test system: rat liver microsomes (RLM); experiment: Rat liver microsomal incubation, metabolite formation quantified by UPLC; settings: RLM
Procedure: as §1, §2, §3

S. typhimurium TA100 = settings: cited from earlier work
mouse skin = test system: mouse skin; design: method as in Buening et al. [1979]; LaVoie et al. [1981]; settings: mouse skin painting; ref Buening et al. [1979]; LaVoie et al. [1981]; cited from earlier work
[5] = Human liver microsomal incubation, metabolite formation quantified by UPLC; settings: human, microsomes, pH 7.4
Procedure: as §1, §2, §3

[6] = Rat liver microsomal incubation, metabolite formation quantified by UPLC; settings: Sprague-Dawley, rat, microsomes, pH 7.4
Procedure: as §1, §2, §3

[7] = test system: Chinese hamster bone marrow cells; design: method as in Bayer [1978]; settings: in vivo exposure; ref Bayer [1978]; cited from earlier work
[8] = ref Katarzyna Rudnicka et al. [2013]
[9] = ref Bucker et al. [1979], Wood et al. [1979]

Cc1cccc2c1ccc1ccccc12 [1-Methylphenanthrene]
Vmax, formation of 1-(Hydroxymethyl) phennathrene RT = 5.55 min ([1]; substrate 1-Methylphenanthrene): 475.3 ± 13.2 pmol/min/mg microsomal protein | Vmax, formation of 1-Methylphenanthrol RT = 6.3 min ([1]; substrate 1-Methylphenanthrene): 14.7 ± 0.8 pmol/min/mg microsomal protein | Vmax, formation of 1-Methylphenanthrol RT = 6.80 min ([1]; substrate 1-Methylphenanthrene): 77.3 ± 3.9 pmol/min/mg microsomal protein | Vmax, formation of Dihydro-1-methylphenanthrene-diol RT = 2.32 min ([1]; substrate 1-Methylphenanthrene): 27.5 ± 4.6 pmol/min/mg microsomal protein | Vmax, formation of Dihydro-1-methylphenanthrene-diol RT = 4.35 min ([1]; substrate 1-Methylphenanthrene): 20.6 ± 0.5 pmol/min/mg microsomal protein | Increase in revertants (S. typhimurium TA98; [8]): 8.4 fold | Increase in revertants (S. typhimurium TA98; ref LaVoie et al. [1983]): 3.2 fold | Increase in the number of revertants compared to the concurrent solvent control [2]: up to 13 fold | Mutagenicity (conclusion) [2]: showed mutagenicity | Increase in the number of revertants compared to the concurrent solvent control [3]: ≤ 6.8 fold | Mutagenicity (conclusion) [3]: showed mutagenicity | Vmax, formation of 1-(Hydroxymethyl) phennathrene RT = 5.55 min ([4]; substrate 1-Methylphenanthrene): 1926 ± 40.3 pmol/min/mg microsomal protein | Vmax, formation of 1-Methylphenanthrol RT = 6.80 min ([4]; substrate 1-Methylphenanthrene): 33.1 ± 2.1 pmol/min/mg microsomal protein | Vmax, formation of 1-Methylphenanthrol RT = 6.92 min ([4]; substrate 1-Methylphenanthrene): 24.0 ± 1.6 pmol/min/mg microsomal protein | Vmax, formation of 1-Methylphenanthrol RT = 7.00 min ([4]; substrate 1-Methylphenanthrene): 17.3 ± 1.2 pmol/min/mg microsomal protein | Vmax, formation of 1-Methylphenanthrol RT = 7.29 min ([4]; substrate 1-Methylphenanthrene): 9.0 ± 0.8 pmol/min/mg microsomal protein | Vmax, formation of Dihydro-1-methylphenanthrene-diol RT = 3.43 min ([4]; substrate 1-Methylphenanthrene): 4.2 ± 0.4 pmol/min/mg microsomal protein | Vmax, formation of Dihydro-1-methylphenanthrene-diol RT = 3.96 min ([4]; substrate 1-Methylphenanthrene): 5.2 ± 0.3 pmol/min/mg microsomal protein | Vmax, formation of Dihydro-1-methylphenanthrene-diol RT = 4.35 min ([4]; substrate 1-Methylphenanthrene): 16.1 ± 1.3 pmol/min/mg microsomal protein | Vmax, formation of Dihydro-1-methylphenanthrene-diol RT = 4.76 min ([4]; substrate 1-Methylphenanthrene): 14.0 ± 0.6 pmol/min/mg microsomal protein | Increase in revertants (S. typhimurium TA100; [8]): 4.1 fold | Increase in revertants (S. typhimurium TA100; ref LaVoie et al. [1983]): 6.0 fold | Tumor-initiating activity (mouse skin): neither phenanthrene nor its monomethylated analogs

c1ccc2c(c1)ccc1ccccc12 [Phenanthrene]
microsomal CLint [5]: 24.2 µL/min/mg | Vmax, formation of 1,2-Dihydro-phenanthrene-diol RT = 3.57 min ([1]; substrate Phenanthrene): 152.5 ± 14.4 pmol/min/mg microsomal protein | Vmax, formation of 1-Phenanthrol RT = 6.31 min ([1]; substrate Phenanthrene): 125.2 ± 5.4 pmol/min/mg microsomal protein | Vmax, formation of 3,4-Dihydro-phenanthrene-diol RT = 2.13 min ([1]; substrate Phenanthrene): 61.5 ± 6.3 pmol/min/mg microsomal protein | Vmax, formation of 3,4-Dihydro-phenanthrene-diol RT = 2.24 min ([1]; substrate Phenanthrene): 6.0 ± 0.3 pmol/min/mg microsomal protein | Vmax, formation of 4-Phenanthrol RT = 6.55 min ([1]; substrate Phenanthrene): 18.0 ± 3.9 pmol/min/mg microsomal protein | Vmax, formation of 9,10-Dihydro-phenanthene-diol RT = 3.38 min ([1]; substrate Phenanthrene): 287.8 ± 17.1 pmol/min/mg microsomal protein | Mutagenicity (S. typhimurium TA98; [9]): Neither phenanthrene nor its dihydrodiol metabolites were found to be mutagenic | Increase in the number of revertants compared to the concurrent solvent control [2]: No increases in the number of revertants were observed | Mutagenicity (conclusion) [2]: tested negative for mutagenicity | Increase in the number of revertants compared to the concurrent solvent control [3]: No increases in the number of revertants were observed | Mutagenicity (conclusion) [3]: tested negative for mutagenicity | microsomal CLint [6]: 7.3 µL/min/mg | Vmax, formation of 1,2-Dihydro-phenanthrene-diol RT = 3.57 min ([4]; substrate Phenanthrene): 79.3 ± 6.5 pmol/min/mg microsomal protein | Vmax, formation of 1-Phenanthrol RT = 6.31 min ([4]; substrate Phenanthrene): 123.9 ± 19.2 pmol/min/mg microsomal protein | Vmax, formation of 3,4-Dihydro-phenanthrene-diol RT = 2.13 min ([4]; substrate Phenanthrene): 10.3 ± 1.8 pmol/min/mg microsomal protein | Vmax, formation of 3-Phenanthrol RT = 6.02 min ([4]; substrate Phenanthrene): 21.3 ± 2.0 pmol/min/mg microsomal protein | Vmax, formation of 4-Phenanthrol RT = 6.55 min ([4]; substrate Phenanthrene): 24.5 ± 5.5 pmol/min/mg microsomal protein | Vmax, formation of 9,10-Dihydro-phenanthene-diol RT = 3.28 min ([4]; substrate Phenanthrene): 9.8 ± 0.6 pmol/min/mg microsomal protein | Vmax, formation of 9,10-Dihydro-phenanthene-diol RT = 3.38 min ([4]; substrate Phenanthrene): 529.2 ± 43.2 pmol/min/mg microsomal protein | Mutagenicity (S. typhimurium TA100; [9]): Neither phenanthrene nor its dihydrodiol metabolites were found to be mutagenic | Tumor-initiating activity (mouse skin): neither phenanthrene nor its monomethylated analogs | DNA adducts [7]: no phenanthrene DNA adducts could be detected
